Tests used:
[1] = target: T1, recombinant PTP1B catalytic domain (Homo sapiens, UniProt P18031); test: PTP1B inhibitory activity assay (pNPP hydrolysis); format: biochemical; conditions: pNPP substrate, 30 °C, pH 6.5; IC50 ≥ 50 μM was considered inactive
T1 construct: The recombinant PTP1B catalytic domain was expressed and purified according to a previous report; made in house
T1 sequence (P18031 3-277 limits assumed): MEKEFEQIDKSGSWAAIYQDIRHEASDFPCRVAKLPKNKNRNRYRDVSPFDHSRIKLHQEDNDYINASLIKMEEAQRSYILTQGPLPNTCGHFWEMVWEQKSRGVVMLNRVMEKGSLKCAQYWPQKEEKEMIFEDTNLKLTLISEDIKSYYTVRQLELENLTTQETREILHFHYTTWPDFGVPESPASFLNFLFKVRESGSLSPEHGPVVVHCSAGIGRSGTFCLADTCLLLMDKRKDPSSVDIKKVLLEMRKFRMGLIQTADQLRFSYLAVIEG
Method: The recombinant PTP1B catalytic domain was expressed and purified according to a previous report. The enzymatic activities of the PTP1B catalytic domain were determined at 30 °C by monitoring the hydrolysis of pNPP. Dephosphorylation of pNPP generated the product pNP, which was monitored at an absorbance of 405 nm with an EnVision multilabel plate reader (Perkin–Elmer Life Sciences, Boston, MA). In a typical […] assay mixture containing 50 mmol/L 3-morpholinopropanesulfonic acid, pH 6.5, 2 mmol/L pNPP, and 30 nmol/L recombinant PTP1B, activities were continuously monitored and the initial rate of hydrolysis was determined by using the early linear region of the enzymatic reaction kinetic curve.

[2] = system: NF-κB signaling pathway in stable HEK293/NF-κB cells; test: NF-κB signaling pathway inhibitory activity assay (luciferase reporter, TNF-α stimulation); format: cell-based; conditions: Homo sapiens, luciferase read after 6 h
Method: NF-κB signaling pathway inhibitory activity was evaluated according to the previously reported protocol. Stable HEK293/NF-κB cells were plated into 384-well plates at a concentration of approximate 2500 cells per well. After culturing overnight, compounds were added to the medium at a final concentration of 0.1 μg/mL. HEK293/NF-κB cells were seeded into 96-well cell culture plates (Corning, NY, USA) and allowed to grow for 24 h. The cells were then treated with compounds, followed by stimulation with TNF-α. 6 h later, the luciferase substrate was added to each well, and the released luciferin signal was detected using an EnVision microplate reader. The IC50 was calculated with Prism 4 software (Graphpad, San Diego, CA) from the nonlinear curve fitting of the percentage of inhibition (% inhibition) versus the inhibitor concentration [I] by using the following equation: % inhibition = 100/(1 + [IC50/[I]]^k), where k is the Hill coefficient.

Row | SMILES | IC50 [1] [µM] | IC50 (μM) PTP1B [1] | IC50 [2] [µM]
1 | CC(C)C[C@H](NC(=O)[C@H](Cc1ccccc1)NC(=O)c1cnccn1)B(O)O [bortezomib, reference compound] |  |  | 14
2 | C=C1CCC(C)(c2cc(O)c(C)cc2Br)C1C (stereo not shown) [compound 2, clalaurenol A] | 21.8 |  | 6.8
3 | C=C1CCC2C(C3C(C)CCC13O)C2(C)C (stereo not shown) [compound 6, claaromadendrene] | > 50 |  | 
4 | C=C1CC[C@H]2[C@@H]([C@H]3[C@@H](C)CC[C@@]13O)C2(C)C [compound 7, 1-hydroxyalloaromadendrene] | > 50 |  | 
5 | Cc1cc(Br)c(C2(C)CCC(=CBr)C2C)cc1O (stereo not shown) [compound 1, isobromolaurenisol] | 18.8 |  | 19.9

The next lines start with results.

Row | IC50 [1] [µM] | IC50 (μM) PTP1B [1] | SMILES | IC50 [2] [µM]
6 | > 50 |  | C/C1=C\CC(C)(C)/C=C/C[C@@]2(C)O[C@@H]2CC1 [compound 8, humulene epoxide II] | 
7 | 15.6 |  | Cc1cc(O)c(C2(C)CCC(=CBr)C2C)cc1Br (stereo not shown) [compound 4, clalaurenol B] | 7.3
8 | > 50 |  | Cc1cc(Br)c([C@]2(C)CC=CC2(C)C)cc1O [compound 5, cupalaurenol] | 
9 | > 50 | inactive | Cc1ccc(C2(C)CCC(=CBr)C2C)c(O)c1 (stereo not drawn) [compound 3, ent-laurenisol] | 
